Among the data in publication PMC7949142, “NAD(H) phosphates mediate tetramer assembly of human C-terminal binding protein (CtBP)” (The Journal of Biological Chemistry, 2021) are EC50 values, retold here.

What all share (format): binding
The target in one assay is T1, CtBP2 (Homo sapiens, UniProt P56545).
T1 construct: 31–445
Put plainly: SEC-MALS tetramer assembly, concentration dependence. For orientation: SEC sorts molecules by how far they enter the pores of the column.

Assay [1] has as its target T2, CtBP1 (Homo sapiens, UniProt Q13363). The assay is described as above. Further details: 28–440.
Assay [2] concerns the target T2, CtBP1. Put plainly: SEC-MALS tetramer assembly. More on the design: 28–375 (crystal); 28–440 (SEC-MALS).

Broadly, the EC50 is the concentration giving half of the maximal effect. A low value points to an effect from little substance. `Nc1ncnc2c1ncn2[C@@H]1O[C@H](COP(=O)(O)OP(=O)(O)O)[C@@H](O)[C@H]1O` [ADP]: the EC50 on CtBP2 is about 43 µM; on CtBP1 [1], about 52 µM.
On to `Nc1ncnc2c1ncn2[C@@H]1O[C@H](COP(=O)(O)O)[C@@H](O)[C@H]1O` [AMP], for which the concentration giving a half-maximal response (EC50) at CtBP1 [2] was about 66 µM.
